In paper PMC8381602, “Non-palm Plant Volatile α-Pinene Is Detected by Antenna-Biased Expressed Odorant Receptor 6 in the Rhynchophorus ferrugineus (Olivier) (Coleoptera: Curculionidae)” (Frontiers in Physiology, 2021):

Tested on: T1, RferOr6/RferOrco
T1 construct: full-length ORF of RferOr6 (382 residues, 7 predicted TMDs) cloned from antennal cDNA in pT7TS; cRNA co-injected 1:1 with RferOrco in Xenopus oocytes; with Odorant receptor coreceptor
Assay: two-electrode voltage clamp, Xenopus oocytes, dose-response
Assay type: cell-based, Rhynchophorus ferrugineus
Details: agonist; co-expressed with RferOrco 1:1; holding potential -80 mV; Ringer's buffer pH 7.6; 20 s exposure

Molecule `CC1=CCC2CC1C2(C)C` (stereo not drawn) [α-pinene] has an EC50 of 94.5 µM.
